In patent US20230270729A1, “USE OF N-[…] HAVING P2X4 RECEPTOR ANTAGONISTIC ACTIVITY FOR TREATING CERTIAN OCULAR DISORDERS” (Bayer Aktiengesellschaft, priority 2020, published 2023):

Assays:
Type in all cases: in vivo, rat
[1] = Evaluation of pharmacokinetics after topical eye drops; conditions: rats, topical eye drops 1 mg/mL in castor oil over four to seven days, expected trough, n = 2; for Mean concentration of test compound, Back of the eye / Mean concentration of test compound, Cornea / Mean concentration of test compound, Lacrimal gland and duct / Mean concentration of test compound, Lens and humor: wet tissue weight
Method: Evaluation of Pharmacokinetics
To evaluate the pharmacokinetics of test substances in vivo, these test substances are dissolved in appropriate formulation vehicles (e.g. castor oil). The test substances are then administered to rats topically as eye drops over four to seven days. Administered doses range usually between 0.1 to 5 mg/mL. Blood samples and ocular tissue samples are taken at the time of expected trough concentration, i.e. just before the next dosing would have occurred. Blood samples are retrieved via exsanguination in vials containing appropriate anticoagulants, such as lithium heparinate or potassium EDTA. Plasma is generated from the blood via centrifugation. Eyes are enucleated and briefly washed in PBS to remove possible remains of the topical formulation. Eyes are dissected and tissues of interest, e.g. cornea, lacrimal gland and duct, lens and humor and back of the eye tissue, are collected separately. Ocular tissues are pooled per individual animal, diluted in appropriate amounts of 0.9% NaCl in water and homogenized using a Tissuelyzer or equivalent system. The quantitative measurement of the test substances in the samples is performed using calibration curves in the respective matrices. The protein content of the samples is precipitated using acetonitrile or methanol. Thereafter, the samples are separated using HPLC in combination with reversed phase chromatography columns. The HPLC system is coupled to a triple quadrupole mass spectrometer via an electrospray interface. Particularly, HPLC was performed using a C18 column (e.g. Phenomenex Kinetex C18 5 mm 5 μm 2.1×50) and a mixture of 10 mM ammonium acetate pH6.8 and acetonitrile in a gradient with an increasing fraction of organic solvent. The retention time for the compound of example 2 was for example ca. 2.6 min.
Data: Mean concentration of test compound (μg/L of plasma or μg/kg of wet tissue weight), samples with concentrations below the lower limit of quantification (LOQ) are denoted as “<LOQ”, n corresponds to the number of the treated animals

Sprague Dawley rats [2] = assay: Lacrimal gland removal model with pain behavior read out (wipe test); conditions: rats after lacrimal gland removal; after two and four weeks of treatment, compared to vehicle (FIG. 1)
Method: Lacrimal Gland Removal Model with Pain Behavior Read Out
(§1) Sprague Dawley rats were anesthetized by intraperitoneal injection of 75 mg/kg ketamine +7.5 mg/kg xylazine hydrochloride. After removal of the facial hair, a 2 mm incision was carefully made between temporal lid margin and zygomatic arch. Bluntly separating the underlying tissue, exposing the fascia covering the intra-orbital lacrimal gland, avoiding the nerves and blood vessels. A small incision was made on the fascia, and the intra-orbital gland was gently pulled out and excised. The incision was sutured with a 8-0 polysorb suture and the skin was closed with a 5-0 polysorb suture (Ethilon; Ethicon Inc, Somerville, N.J.). A 3 mm incision was made just below the earlobe, and the extra-orbital lacrimal gland was pulled out and excised along its stem. This incision was closed in a manner similar as described above.
Acclimate rat in a quiet, clean, clear cage for 15 minutes. Gently hold head of rat, add one drop of 5M NaCl in the rat right eye, and start count wipes (front limb wipe across the face) for 30 seconds. Repeat wipe test in left eye. Wash each eye with 10 ml NS. […] The number of eye wipes over a period of thirty seconds was determined for each animal and averaged at various timepoints. […]

Sprague Dawley rats [3] = assay: Lacrimal gland removal model, corneal nerve density measurement (IVCM); conditions: rats after lacrimal gland removal; treatment started two weeks post removal, compared to vehicle (FIG. 2)
Method: as §1
Nerve Density Measurement: […]

Row | Mean concentration of test compound, Plasma [1] [ng/mL] | Mean concentration of test compound, Back of the eye [1] [µg/kg] | Mean concentration of test compound, Cornea [1] [µg/kg] | Mean concentration of test compound, Lacrimal gland and duct [1] [µg/kg] | Mean concentration of test compound, Lens and humor [1] [µg/kg] | SMILES | Eye wipe count (5M NaCl, 30 seconds) (Sprague Dawley rats [2]) | Corneal nerve density (fold difference from baseline) (Sprague Dawley rats [3])
1 | 2.37 | 14.5 | 13.4 | 33.4 | <4.0 | N#Cc1cnn(-c2ccc(NC(=O)Cc3ccccc3Cl)cc2S(N)(=O)=O)c1 [2-(2-Chlorophenyl)-N-[4-(4-cyano-1H-pyrazol-1-yl)-3-sulfamoylphenyl]acetamide, reference compound] | – | –
2 | 0.4 | 13.8 | 44.9 | 17.4 | 1.8 | CC(=O)N(c1ccc(F)cc1)c1cc(NC(=O)Cc2cccc(F)c2Cl)ccn1 [Example 2, N-{4-[2-(2-chloro-3-fluorophenyl)acetamido]pyridin-2-yl}-N-(4-fluorophenyl)acetamide] | no apparent further increase in wipe count | a decline in nerve density could be observed
